Data set [1] can be described thus: Rat IV and PO pharmacokinetic profiling. The data set is classed as in vivo, male Sprague-Dawley rats. The conditions noted are these: male, Sprague-Dawley, plasma, n = 3, mean ± standard deviation. How it is done: The pharmacokinetic profiles of Example 2 were assessed in male Sprague-Dawley rats via intravenous (IV) and oral (per os, PO) routes of delivery. Pharmacokinetic data (mean values±standard deviation) for Example 2 of the invention are detailed in Table 5.
Methods: For pharmacokinetic analysis, groups of three male Sprague-Dawley rats, ranging in weight between 200 and 230 g, were administered a single dose of Example 2 via IV or PO route, using the doses, dose volumes and vehicles specified in Table 5. Following dosing, blood samples were taken at several time points (pre-dose, 2 min, 5 min, 15 min, 30 min, 1 h, 3 h, 6 h, 12 h and 24 h for IV administration and pre-dose, 5 min, 15 min, 30 min, 1 hr, 2 h, 4 h, 8 h, 12 h and 24 h for PO administration) via serial tail vein bleeds, and centrifuged to separate plasma for analysis by LC-MS/MS. WinNonlin v8.2 statistics software (Pharsight Corporation, California, USA) was used to generate pharmacokinetic parameters using non-compartmental analysis.

Another data set deals with T1, human GPR52 (Homo sapiens, UniProt Q9Y2T5).
T1 construct: expressed in transfected cells; host or cells: HEKf suspension cells infected with BacMam virus
The experiment in a line: GPR52 Agonist Functional cAMP Assay. The data set is classed as cell-based. How it is done:
GPR52 Agonist Functional cAMP Assay
HEKf suspension cells were infected for 24 h with 0.1% v/v human GPR52 expressing BacMam virus, a modified baculovirus designed for mammalian gene expression. Following BacMam infection, cells were pelleted by centrifugation (335 g, 5 min), resuspended in cell freezing medium (Sigma) and frozen at −150° C. until required. On experiment day, 25 nL GPR52 compound dilutions, prepared in DMSO, were stamped onto proxiplates (PerkinElmer) by a LabCyte ECHO acoustic dispenser. Frozen cells were thawed and resuspended in assay stimulation buffer (Cisbio) containing 0.5 mM 3-iso-butyl-1-methylxanthine (IBMX, Sigma) to achieve a density of 2000 cells per well. 10 μl cells were added to assay plates using a Multidrop Combi Reagent Dispenser (ThermoFisher) before centrifugation (335 g, 1 min). Cells were incubated with compounds at 37° C. for 30 min prior to addition of cAMP detection reagents (HiRange cAMP kit, Cisbio) which were prepared according to the manufacturer's instructions. Plates were shaken for 1 h at room temperature before reading on a PHERAstar FS plate reader (BMG Labtech) using standard HTRF settings. HTRF ratios were obtained by dividing the acceptor emissions (665 nm) by the donor emissions (620 nm) and multiplying by 10,000.

Data set [2] in a line: Rat IV brain penetration (unbound brain-to-plasma ratio). The data set is classed as in vivo, male Sprague-Dawley rats. As to conditions: male, Sprague-Dawley, brain and plasma, 1 mg/kg, 10 min post-dose, n = 3. Here is the method:
Plasma and brain exposure were evaluated to assess the brain penetration of Example 2, following IV administration. Unbound brain-to-plasma ratio (Kp,uu) was calculated, as detailed in Table 5, following experimental determination of binding in rat plasma and brain homogenate.
Methods: For brain penetration assessment, male Sprague-Dawley rats (n=3) were administered a single 1 mg/kg dose (formulated in 10% DMAC+10% Solutol HS15+80% saline) via the IV route. After 10 min post-dose, animals were sacrificed and brains extracted, homogenised with 2 volumes (w/v) of 50 mM sodium phosphate buffer (pH 7.4), and analysed by LC-MS/MS. Blood samples were removed at the same time point via tail vein bleed, centrifuged and the plasma analysed by LC-MS/MS.
To permit calculation of unbound brain-to-plasma ratio (Kp,uu), test compound binding in rat plasma and brain homogenate was performed, using Rapid Equilibrium Dialysis (RED). Test compound prepared in DMSO (1 μM final, 0.2% DMSO) was added to (i) undiluted male Sprague Dawley rat plasma and (ii) rat brain tissue homogenised with 2 volumes (w/v) of sodium phosphate buffer (pH 7.4), and dialysed against phosphate buffer for 5 h at 37° C. […] Fraction unbound (Fu) in plasma and brain was calculated using the following formula, then used to correct total plasma and brain concentrations to derive the Kp,uu: […]

T1 sequence (Q9Y2T5 whole entry): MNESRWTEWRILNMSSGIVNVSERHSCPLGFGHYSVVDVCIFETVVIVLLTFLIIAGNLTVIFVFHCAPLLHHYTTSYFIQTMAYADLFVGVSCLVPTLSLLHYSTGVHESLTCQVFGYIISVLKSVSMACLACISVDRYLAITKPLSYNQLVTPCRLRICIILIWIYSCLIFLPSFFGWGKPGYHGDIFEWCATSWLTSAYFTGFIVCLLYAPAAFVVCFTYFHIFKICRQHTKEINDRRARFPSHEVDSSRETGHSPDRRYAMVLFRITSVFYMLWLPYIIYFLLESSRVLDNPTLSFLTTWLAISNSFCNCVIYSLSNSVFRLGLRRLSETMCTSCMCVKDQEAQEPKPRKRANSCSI

The term bioavailability denotes the share of a dose that reaches the circulation, judged against a reference dose that is usually intravenous. High values mean good availability, low ones poor availability. By Emax is commonly meant the size of the effect at its maximum, as opposed to the concentration needed. Turning to `CC(=O)NC1CCCc2c1nnn2-c1cc(Cc2cc(F)cc(C(F)(F)F)c2)ccn1` (centres unmarked) [Example 2, N-(1-(4-(3-fluoro-5-(trifluoromethyl)benzyl)pyridin-2-yl)-4,5,6,7-tetrahydro-1H-benzo[d][1,2,3]triazol-4-yl)acetamide], the clearance in data set [1] (rat IV, 1 mg/kg) was 5.5 ± 1 mL/min/kg. The bioavailability in data set [1] (rat PO, 3 mg/kg) is 88.2 ± 11.4%. In addition, the EC50 on human GPR52 (HEKf cells infected with human GPR52 BacMam virus, HTRF cAMP, 30 min at 37° C., read-out: PEC50 average (converted)) is 50.1 nM. At human GPR52 (maximal response normalised to DMSO (0%) and compound 7m of J. Med. Chem., 2014, 57, 5226 (100%)), this molecule had an Emax of 86%. Further, the Kp uu at 10 min in data set [2] came out at 0.35 ± 0.02.

For the origin of these results see patent US20230348416A1, “GPR52 MODULATOR COMPOUNDS” (Heptares Therapeutics Limited, priority 2020, published 2023).
